Laboratory results: patent US20150079000A1, “Labelled Quinoxaline Derivatives as Multimodal Radiopharmaceuticals and Their Precursors” (INSTITUT NATIONAL DE LA SANTET DE LA RECHERCHE MEDICALE, priority 2012, published 2015)

Tested on: B16 murine melanoma tumours
Test: Ex vivo biodistribution study for compound [125I](1)
Assay type: in vivo, C57BL/6J mice
Experimental: Twenty four B16BL6 primary melanoma bearing mice were intravenously injected with 2.2 MBq of [^1251]1 and sacrificed 1 h, 3 h, 6 h, 24 h, 72 h and 10 days after tracer injection (n=4/time point). Tumours and major organs and tissues were promptly excised, harvested, weighted and their radioactivity counted using a calibrated γ-counter with a […] energy window. After radioactive decay correction, results were expressed as percentage of injected dose per gram of tissue (% ID/g).

## CCN(CCNC(=O)c1cnc2cc([125I])ccc2n1)CCOCCOCCOCCF [[^125I](1)]
1 h p.i.
  % ID/g Adipose: 0.61 ± 0.01 % ID/g
  % ID/g Blood: 0.97 ± 0.07 % ID/g
  % ID/g Bones: 0.79 ± 0.09 % ID/g
  % ID/g Brain: 0.27 ± 0.03 % ID/g
  % ID/g Ceacum: 4.97 ± 3.01 % ID/g
  % ID/g Colon: 4.51 ± 4.40 % ID/g
  % ID/g Heart: 1.17 ± 0.07 % ID/g
  % ID/g Kidney: 4.75 ± 0.71 % ID/g
  % ID/g Liver: 6.33 ± 1.69 % ID/g
  % ID/g Lung: 3.12 ± 0.42 % ID/g
  % ID/g Muscle: 0.55 ± 0.16 % ID/g
  % ID/g Pancreas: 2.96 ± 0.15 % ID/g
  % ID/g Skin: 1.04 ± 0.06 % ID/g
  % ID/g Small intestine: 16.68 ± 10.70 % ID/g
  % ID/g Spleen: 2.14 ± 0.20 % ID/g
  % ID/g Stomach: 9.2 ± 1.49 % ID/g
  % ID/g Testes: 0.68 ± 0.19 % ID/g
3 h p.i.
  % ID/g Adipose: 0.36 ± 0.05 % ID/g
  % ID/g Blood: 0.82 ± 0.05 % ID/g
  % ID/g Bones: 0.48 ± 0.03 % ID/g
  % ID/g Brain: 0.15 ± 0.01 % ID/g
  % ID/g Ceacum: 25.73 ± 7.88 % ID/g
  % ID/g Colon: 21.19 ± 18.02 % ID/g
  % ID/g Heart: 0.77 ± 0.05 % ID/g
  % ID/g Kidney: 3.14 ± 1.27 % ID/g
  % ID/g Liver: 3.37 ± 0.14 % ID/g
  % ID/g Lung: 2.14 ± 0.27 % ID/g
  % ID/g Muscle: 0.30 ± 0.04 % ID/g
  % ID/g Pancreas: 1.48 ± 0.07 % ID/g
  % ID/g Skin: 1.34 ± 0.72 % ID/g
  % ID/g Small intestine: 4.16 ± 0.70 % ID/g
  % ID/g Spleen: 2.37 ± 2.58 % ID/g
  % ID/g Stomach: 4.53 ± 0.94 % ID/g
  % ID/g Testes: 0.54 ± 0.03 % ID/g
6 h p.i.
  % ID/g Adipose: 0.19 ± 0.06 % ID/g
  % ID/g Blood: 0.62 ± 0.20 % ID/g
  % ID/g Bones: 0.30 ± 0.10 % ID/g
  % ID/g Brain: 0.08 ± 0.03 % ID/g
  % ID/g Ceacum: 23.31 ± 16.47 % ID/g
  % ID/g Colon: 15.92 ± 9.97 % ID/g
  % ID/g Heart: 0.46 ± 0.17 % ID/g
  % ID/g Kidney: 1.56 ± 0.82 % ID/g
  % ID/g Liver: 2.02 ± 0.64 % ID/g
  % ID/g Lung: 1.04 ± 0.37 % ID/g
  % ID/g Muscle: 0.17 ± 0.07 % ID/g
  % ID/g Pancreas: 0.65 ± 0.18 % ID/g
  % ID/g Skin: 0.62 ± 0.31 % ID/g
  % ID/g Small intestine: 2.23 ± 1.35 % ID/g
  % ID/g Spleen: 6.45 ± 8.15 % ID/g
  % ID/g Stomach: 7.39 ± 4.08 % ID/g
  % ID/g Testes: 0.36 ± 0.08 % ID/g
24 h p.i.
  % ID/g Adipose: 0.028 ± 0.00 % ID/g
  % ID/g Blood: 0.06 ± 0.01 % ID/g
  % ID/g Bones: 0.03 ± 0.00 % ID/g
  % ID/g Brain: 0.01 ± 0.01 % ID/g
  % ID/g Ceacum: 0.41 ± 0.13 % ID/g
  % ID/g Colon: 0.69 ± 0.23 % ID/g
  % ID/g Heart: 0.16 ± 0.06 % ID/g
  % ID/g Kidney: 0.15 ± 0.02 % ID/g
  % ID/g Liver: 0.46 ± 0.10 % ID/g
  % ID/g Lung: 0.08 ± 0.01 % ID/g
  % ID/g Muscle: 0.02 ± 0.00 % ID/g
  % ID/g Pancreas: 0.05 ± 0.01 % ID/g
  % ID/g Skin: 0.17 ± 0.00 % ID/g
